Values of other authors as cited in patent publication US20250221949A1, “ANTISEPTIC, ANTISEBORRHEIC, EXFOLIATING COMPOSITION TO REMOVE OR PREVENT ACNE” (Excalibur Pharmaceuticals, Inc., priority 2012, published 2025).

System: Candida albicans, some Trichomonas, Staphylococcus aureus; Escherichia coli, Salmonella typhi, S. paratyphi, Shigella dysenterica and Vibro cholera species
Conditions: background statement

SMILES: C=CCS[S+]([O-])CC=C (stereo not shown) [DDO, diallyl disulphide oxide]
- in vitro activity against microorganisms (in words): has in vitro activity
